{
  "source": "patent US7151105B2",
  "about": "“Inhibitors of Hepatitis C virus RNA-dependent RNA polymerase, and compositions and treatments using the same” (Agouron Pharmaceuticals, Inc., priority 2004, dated 2006)",
  "note": "Where a name gives a salt, the structure may show the parent alone.",
  "data": [
    {"biological_target": "T1, Recombinant HCV polymerase (Hepatitis C virus genotype 1b, UniProt P26663)", "T1 construct": "Recombinant HCV polymerase was tested for its ability to perform primer/template-directed transcription", "T1 sequence (P26663 2420-3010)": "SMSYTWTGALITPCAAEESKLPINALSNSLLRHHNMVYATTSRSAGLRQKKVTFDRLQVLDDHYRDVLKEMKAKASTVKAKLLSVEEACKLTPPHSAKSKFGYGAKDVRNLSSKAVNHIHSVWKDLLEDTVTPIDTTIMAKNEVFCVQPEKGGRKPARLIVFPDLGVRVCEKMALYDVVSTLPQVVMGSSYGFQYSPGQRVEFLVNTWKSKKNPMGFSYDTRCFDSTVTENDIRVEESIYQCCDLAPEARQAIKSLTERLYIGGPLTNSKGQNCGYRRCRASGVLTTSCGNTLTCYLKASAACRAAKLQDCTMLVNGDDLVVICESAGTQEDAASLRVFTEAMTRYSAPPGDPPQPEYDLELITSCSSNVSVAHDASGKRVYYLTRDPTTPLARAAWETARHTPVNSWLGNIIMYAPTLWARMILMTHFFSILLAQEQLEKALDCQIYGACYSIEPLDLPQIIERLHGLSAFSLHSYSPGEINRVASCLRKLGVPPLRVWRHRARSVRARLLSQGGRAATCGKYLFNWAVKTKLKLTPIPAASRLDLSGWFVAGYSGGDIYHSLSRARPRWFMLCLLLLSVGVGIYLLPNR", "experiment": "biochemical", "details": "inhibition of polymerase-directed transcription; 30 min at 30° C; 30 nM enzyme; cpm data in triplicate", "description": "The compounds described herein were tested for activity with HCV polymerase. Recombinant HCV polymerase was tested for its ability to perform primer/template-directed transcription in assays that contained 30 mM tris-HCl pH 7.2, 10 mM MgCl2, 20 mM NaCl, 1 mM Dithiothreitol (DTT), 0.05% Tween-20, 1% glycerol, 5 pmoles biotin-dG12 (primer), 0.5 pmoles poly(rC)300 (template), 1 μM GTP, 0.1–0.3 uCi α-^32P-GTP, and 2.5 pmoles (0.15 μg) HCV polymerase protein in a final volume of 75 μL. Reactions were initiated by addition of enzyme and incubated 30 minutes at 30° C. Reactions were stopped by addition of 33 mM EDTA, and polynucleotide products were collected by filtration through Diethylaminoethyl (DE) Filtermat papers (Wallac). Unincorporated triphosphate was removed by washing the filters with 5% dibasic sodium phosphate. The filters were counted in a Packard Tri-Lux Microbeta scintillation counter (Packard Bioscience, Meriden, Conn.). Compounds to be tested were added at various concentrations, e.g., 1 μm to 50 μm, from stocks in 10% DMSO-water (final DMSO is 1% in reaction).\nIC50 values were estimated from the primary cpm data (collected in triplicate) using the formula: cpm (I)=cpm (no inhibitor)(1−([I]/([I]+IC50))). […] A percent inhibition value is expressed for a compound where it was impractical to calculate an IC50 value with available data.", "units": {"IC50": "nM"}, "values": [
      {"smiles": "Cc1cc(CCC2(C3CCCC3)CC(O)=C(Cc3nc4nc(C)cc(C)n4n3)C(=O)O2)cc(C)n1", "note": "(stereo not drawn) [A(18), 6-Cyclopentyl-6-[2-(2,6-dimethylpyridin-4-yl)ethyl]-3[(5,7-dimethyl[1,2,4]triazolo[1,5-a]pyrimidin-2-yl)methyl]-4-hydroxy-5,6dihydro-2H-pyran-2-one]", "IC50": 170},
      {"smiles": "CCC(C#N)(CC)c1ccc(CCC2(C3CCCC3)CC(O)=C(Cc3nc4nc(C)cc(C)n4n3)C(=O)O2)cc1C(F)(F)F", "note": "(single isomer, unassigned) [A(155), 2-[4-(2-{2-Cyclopentyl-5-[(5,7-dimethyl[1,2,4]triazolo[1,5-a]pyrimidin-2-yl)methyl]-4-hydroxy-6-oxo-3,6-dihydro-2H-pyran-2-yl}ethyl)-2-(trifluoromethyl)phenyl]-2-ethylbutanenitrile]", "IC50": 54},
      {"smiles": "CCc1cc(CCC2(C3CCCC3)CC(O)=C(Cc3nc4nc(C)cc(C)n4n3)C(=O)O2)ccc1CNS(C)(=O)=O", "note": "(stereo not drawn) [A(128)]", "IC50": 6},
      {"smiles": "CCC(C#N)(CC)c1ccc(CCC2(C3CCCC3)CC(O)=C(Cc3nc4nc(C)cc(C)n4n3)C(=O)O2)cc1C(F)(F)F", "note": "(single isomer, unassigned) [A(154), 2-[4-(2-{2-Cyclopentyl-5-[(5,7-dimethyl[1,2,4]triazolo[1,5-a]pyrimidin-2-yl)methyl]-4-hydroxy-6-oxo-3,6-dihydro-2H-pyran-2-yl}ethyl)-2-(trifluoromethyl)phenyl]-2-ethylbutanenitrile]", "IC50": 11},
      {"smiles": "CCOc1cc(O)c(CC)cc1CCC1(C2CCCC2)CC(O)=C(Cc2nc3ncc(C)cn3n2)C(=O)O1", "note": "(stereo not drawn) [A(26), 6-Cyclopentyl-6-[2-(2-ethoxy-5-ethyl-4-hydroxyphenyl)ethyl]-4-hydroxy-3-[(6-methyl[1,2,4]triazolo[1,5-a]pyrimidin-2-yl)methyl]-5,6-dihydro-2H-pyran-2-one]", "IC50": 4},
      {"smiles": "Cc1cc(C)n2nc(CC3=C(O)CC(CCc4cc(CC(F)(F)F)nc(CC(F)(F)F)c4)(C4CCCC4)OC3=O)nc2n1", "note": "(stereo not drawn) [A(9), 6-{2-[2,6-Bis(2,2,2-trifluoroethyl)pyridin-4-yl]ethyl}-6-cyclopentyl-3-[(5,7-dimethyl[1,2,4]triazolo[1,5-a]pyrimidin-2-yl)methyl]-4-hydroxy-5,6-dihydro-2H-pyran-2-one]", "IC50": 5},
      {"smiles": "CCc1cc(CCC2(C3CCCC3)CC(O)=C(Cc3nc4nc(C)cc(C)n4n3)C(=O)O2)c2c(c1O)CCO2", "note": "(single isomer, unassigned; enantiomer 2) [A(13), Enantiomer 2 of 6-Cyclopentyl-3-[(5,7-dimethyl[1,2,4]triazolo[1,5-a]pyrimidin-2-yl)methyl]-6-[2-(5-ethyl-4-hydroxy-2,3-dihydro-1-benzofuran-7-yl)ethyl]-4-hydroxy-5,6dihydro-2H-pyran-2-one]", "IC50": 1},
      {"smiles": "Cn1cc(CC2=C(O)CC(CCc3ccc(C(C)(C)C#N)c(F)c3)(C3CCCC3)OC2=O)cn1", "note": "(stereo not drawn) [A(86), 2-[4(2-{2-Cyclopentyl-hydroxy-5[(1-methyl-1H-pyrazol-4-yl)methyl]-6-oxo-3,6-dihydro-2H-pyran-2-yl}ethyl)-2-fluorophenyl]-2-methylpropanenitrile]", "IC50": 86},
      {"smiles": "CS(=O)(=O)c1ccc(CCC2(C3CCCC3)CC(=O)CC(=O)O2)cc1Cl", "note": "(stereo not drawn) [B(2), 6-{2-[3-Chloro-4-(methylsulfonyl)phenyl]ethyl}-6-cyclopentyldihydro-2H-pyran-2,4(3H)-dione]", "IC50": 48000},
      {"smiles": "CCCOc1cnc(CC)cc1CCC1(C2CCCC2)CC(O)=C(Cc2nc3nc(C)cc(C)n3n2)C(=O)O1", "note": "(single isomer, unassigned) [A(54), 6-Cyclopentyl-3-[(5,7-dimethyl[1,2,4]triazolo[1,5-a]pyrimidin-2-yl)methyl]-6-[2-(2-ethyl-5-propoxypyridin-4-yl)ethyl]-4-hydroxy-5,6-dihydro-2H-pyran-2-one]", "IC50": 3},
      {"smiles": "CCc1cc(CCC2(C3CCCC3)CC(O)=C(Cc3nc4nc(C)cc(C)n4n3)C(=O)O2)ccc1Oc1nccs1", "note": "(stereo not drawn) [A(122), 6-Cyclopentyl-3-[(5,7-dimethyl[1,2,4]triazolo[1,5-a]pyrimidin-2-yl)methyl]-6-{2-[3ethyl-4-(1,3thiazol-2-yloxy)phenyl]ethyl}-4hydroxy-5,6dihydro-2H-pyran-2-one]", "IC50": 4},
      {"smiles": "CCc1ccc(CCCOC)c(CCC2(C3CCCC3)CC(O)=C(Cc3nc4nc(C)cc(C)n4n3)C(=O)O2)c1", "note": "(stereo not drawn) [A(19), 6Cyclopentyl-3-[(5,7-dimethyl[1,2,4]triazolo[1,5-a]pyrimidin-2-yl)methyl]-6-{2-[5-ethyl-2-(3-methoxypropyl)phenyl]ethyl}-4-hydroxy-5,6dihydro-2H-pyran-2-one]", "IC50": 12},
      {"smiles": "CCOc1cc(O)c(CC)cc1CCC1(C2CCCC2)CC(O)=C(Cc2nc3ncc(C)cn3n2)C(=O)O1", "note": "(single isomer, unassigned) [A(57), 6-Cyclopentyl-6-[2-(2-ethoxy-5-ethyl-4-hydroxyphenyl)ethyl]-4-hydroxy-3-[(6-methyl[1,2,4]triazolo[1,5-a]pyrimidin-2-yl)methyl]-5,6-dihydro-2H-pyran-2-one]", "IC50": 3},
      {"smiles": "Cc1cc(C)n2nc(CC3=C(O)CC(CCc4ccc(C(C)(C)O)c(C)c4)(C4CCCC4)OC3=O)nc2n1", "note": "(stereo not drawn) [B(32), 6-Cyclopentyl-3-[(5,7-dimethyl[1,2,4]triazolo[1,5-a]pyrimidin-2-yl)methyl]-4-hydroxy-6-{2-[4-(1-hydroxy-1-methylethyl)-3-methylphenyl]ethyl}-5,6-dihydro-2H-pyran-2-one]", "IC50": 91},
      {"smiles": "CCOc1cnc(CC)cc1CCC1(C2CCCC2)CC(O)=C(Cc2nc3nc(C)cc(C)n3n2)C(=O)O1", "note": "(single isomer, unassigned) [A(51), 6-Cyclopentyl-3-[(5,7-dimethyl[1,2,4]triazolo[1,5-a]pyrimidin-2-yl)methyl]-6-[2-(5-ethoxy-2-ethylpyridin-4-yl)ethyl]-4-hydroxy-5,6-dihydro-2H-pyran-2-one]", "IC50": 3},
      {"smiles": "Cc1nn(C)c(C)c1CC1=C(O)CC(CCc2ccc(C(C)(C)C#N)c(Cl)c2)(C2CCCC2)OC1=O", "note": "(stereo not drawn) [B(25), 2-[2-Chloro-4-(2-{2-cyclopentyl-4-hydroxy-6-oxo-5-[(1,3,5-trimethyl-1H-pyrazol-4-yl)methyl]-3,6-dihydro-2H-pyran-2-yl}ethyl)phenyl]-2-methylpropanenitrile]", "IC50": 33},
      {"smiles": "CCn1cc(CC2=C(O)CC(CCc3ccc(C(C)(C)C#N)c(F)c3)(C3CCCC3)OC2=O)cn1", "note": "(stereo not drawn) [A(85), 2-[4-(2-{2-Cyclopentyl-5-[(1-ethyl-1H-pyrazol-4-yl)methyl]-4-hydroxy-6-oxo-3,6-dihydro-2H-pyran-2-yl}ethyl)-2-fluorophenyl]-2-methylpropanenitrile]", "IC50": 83},
      {"smiles": "CCc1cc(CCC2(C3CCCC3)CC(O)=C(Cc3nc4nc(C)cc(C)n4n3)C(=O)O2)ccc1CN", "note": "(stereo not drawn) [A(125), 6-{2-[4-(Aminomethyl)-3-ethylphenyl]ethyl}-6-cyclopentyl-3-[(5,7-dimethyl[1,2,4]triazolo[1,5-a]pyrimidin-2-yl)methyl]-4-hydroxy-5,6-dihydro-2H-pyran-2-one hydrochloride]", "IC50": 10},
      {"smiles": "CCOc1cc(O)c(CC)cc1CCC1(C2CCCC2)CC(O)=C(Cc2nc3ncc(C)cn3n2)C(=O)O1", "note": "(single isomer, unassigned) [A(58), 6-Cyclopentyl-6-[2-(2-ethoxy-5-ethyl-4-hydroxyphenyl)ethyl]-4-hydroxy-3-[(6-methyl[1,2,4]triazolo[1,5-a]pyrimidin-2-yl)methyl]-5,6-dihydro-2H-pyran-2-one]", "IC50": 1},
      {"smiles": "CCOc1cnc(CC)cc1CCC1(C2CCCC2)CC(O)=C(Cc2nc3ncc(C)cn3n2)C(=O)O1", "note": "(stereo not drawn) [A(43), 6-Cyclopentyl-6-[2-(5-ethoxy-2-ethylpyridin-4-yl)ethyl]-4-hydroxy-3-[(6-methyl[1,2,4]triazolo[1,5-a]pyrimidin-2-yl)methyl]-5,6-dihydro-2H-pyran-2-one]", "IC50": 8},
      {"smiles": "CCc1cc(CCC2(C3CCCC3)CC(O)=C(Cc3nc4nc(C)cc(C)n4n3)C(=O)O2)ccc1-c1ncco1", "note": "(stereo not drawn) [A(134), 6-cyclopentyl-3-[(5,7-dimethyl[1,2,4]triazolo[1,5-a]pyrimidin-2-yl)methyl]-6-{2-[3-ethyl-4-(1,3-oxazol-2-yl)phenyl]ethyl}-4-hydroxy-5,6-dihydro-2H-pyran-2-one]", "IC50": 3},
      {"smiles": "CCc1cc(CCC2(C3CCCC3)CC(O)=C(Cc3nc4ncc(C)cn4n3)C(=O)O2)ccc1Cn1cccn1", "note": "(stereo not drawn) [A(113), 6-Cyclopentyl-6-{2-[3-ethyl-4-(1H-pyrazol-1-ylmethyl)phenyl]ethyl}-4-hydroxy-3-[(6-methyl[1,2,4]triazolo[1,5-a]pyrimidin-2-yl)methyl]-5,6-dihydro-2H-pyran-2-one]", "IC50": 7},
      {"smiles": "COc1cc(OC)c(CCC2(C3CCCC3)CC(O)=C(Cc3nc(-c4ccccc4)nn3C)C(=O)O2)cc1Cl", "note": "(stereo not drawn) [B(17), 6-[2-(5-Chloro-2,4-dimethoxyphenyl)ethyl]-6-cyclopentyl-4-hydroxy-3-[(1-methyl-3-phenyl-1H-1,2,4-triazol-5-yl)methyl]-5,6-dihydro-2H-pyran-2-one]", "IC50": 26},
      {"smiles": "CCOc1cnc(CC)cc1CCC1(C2CCCC2)CC(O)=C(Cc2nc3ncc(C)cn3n2)C(=O)O1", "note": "(single isomer, unassigned) [A(55), 6-Cyclopentyl-6-[2-(5-ethoxy-2-ethylpyridin-4-yl)ethyl]-4-hydroxy-3-[(6-methyl[1,2,4]triazolo[1,5-a]pyrimidin-2-yl)methyl]-5,6-dihydro-2H-pyran-2-one]", "IC50": 2}
    ]}
  ]
}
